Measured values from patent US20180369327A1, “METHOD FOR TREATING OR PREVENTING OSTEOARTHRITIS” (Dong-A University Research Foundation for Industry-Academy …, priority 2017, published 2018).
“Also recorded” adds a separate entry of the source.

Legend:
STAMP2 = test: Western blot of STAMP2 protein in articular chondrocytes; assay type: cell-based, rat; conditions: n=4
Method: (§1) Rat articular chondrocytes for primary culture were isolated from knee joint cartilage slices by enzymatic digestion for 1 h with 0.2% type II collagenase (381 units/mg) in DMEM. After the isolated cells were collected by brief centrifugation, they were resuspended in DMEM supplemented with 10% (v/v) FBS, […] streptomycin and 50 units/ml penicillin (Gibco). The cells were plated on culture dishes at a density of 5×10^4 cells/cm^2. The medium was replaced every 2 days, and they reached confluence after approximately 5 days in culture. In each experiment, the cells from three animals were pooled and analyzed three times. FFA were dissolved in absolute ethanol at a concentration of 500 mM and diluted to final concentrations of FFAs with the appropriate concentration of 1% (w/v) FFA-free BSA. Controls were incubated with equal concentrations of FFA-free BSA containing ethanol. […] Cell (2×10^6) were washed twice with ice-cold PBS. Cells were resuspended in lysis buffer [200 ll of icecold solubilizing buffer (300 mM NaCl, 50 mM Tris-Cl (pH 7.6), 0.5% Triton X-100, protease inhibitor cocktail)] and incubated at 4° C. for 30 min. The lysates were centrifuged at 14,000 rpm for 20 min at 4° C. The protein concentrations of the cell lysates were measured with the Bradford protein assay reagent (Bio-Rad). Then, 50 μg of proteins was loaded onto 15 SDS-PAGE. The separated proteins were transferred to nitrocellulose membranes (Amersham Pharmacia Biotech, Piscataway, N.J., USA) and probed with each antibody. Immunostaining with the antibodies was carried out using the Super Signal West Pico enhanced chemiluminescence substrate and detected with LAS-3000PLUS.

FSP27 = test: Western blot of FSP27 protein in articular chondrocytes; assay type: cell-based, rat; conditions: n=4
Method: as §1

[1] = system: rat articular chondrocytes; test: Cell viability assay (automated trypan blue exclusion); assay type: cell-based; conditions: n=4
Method: Rat articular chondrocytes for primary culture were isolated from knee joint cartilage slices by enzymatic digestion for 1 h with 0.2% type II collagenase (381 units/mg) in DMEM. After the isolated cells were collected by brief centrifugation, they were resuspended in DMEM supplemented with 10% (v/v) FBS, […] streptomycin and 50 units/ml penicillin (Gibco). The cells were plated on culture dishes at a density of 5×10^4 cells/cm^2. The medium was replaced every 2 days, and they reached confluence after approximately 5 days in culture. In each experiment, the cells from three animals were pooled and analyzed three times.
FFA were dissolved in absolute ethanol at a concentration of 500 mM and diluted to final concentrations of FFAs with the appropriate concentration of 1% (w/v) FFA-free BSA. Controls were incubated with equal concentrations of FFA-free BSA containing ethanol. To examine the effect of several chemicals, cells were pretreated with 150 μg/mL DRB or 30 μM cilostazol for 24 h or 25 ng/ml TNF-α for 3 h before FFA treatment.
siRNA transfection or combination treatment with FFAs. Transfection of siRNA was performed with the use of siPORT Amine and Opti-MEM media. Cells grown to a confluence of 40% to 50% in six-well plates were transfected with 100 nM final siRNA concentration per well. Transfection mixture was added to each well, and incubation occurred for 4 h. Then 2 ml of growth medium was added, and cells were incubated for another 20 h. After siRNA transfection medium was removed, each well was washed in PBS solution. Cells were treated with FFAs for 24 hours.
Recombinant adenoviral STAMP2 was prepared as described previously34. Cells (1×10^7) were infected with recombinant adenoviral STAMP2 at multiplicities of infection (MOI) of 500, 1000 and 1500 to the medium.
An automated trypan blue exclusion assay was undertaken. Total cells and trypan bluestained (i.e., nonviable) cells were counted, and the percentage of nonviable cells was calculated using the Vi-Cell cell counter (Beckman Coulter, Miami, Fla., USA).

[2] = system: lipid droplets (LD) in rat articular chondrocytes; test: Lipid droplet staining (Nile red, BODIPY), confocal microscopy and quantification; assay type: cell-based
Method: Rat articular chondrocytes for primary culture were isolated from knee joint cartilage slices by enzymatic digestion for 1 h with 0.2% type II collagenase (381 units/mg) in DMEM. After the isolated cells were collected by brief centrifugation, they were resuspended in DMEM supplemented with 10% (v/v) FBS, […] streptomycin and 50 units/ml penicillin (Gibco). The cells were plated on culture dishes at a density of 5×10^4 cells/cm^2. The medium was replaced every 2 days, and they reached confluence after approximately 5 days in culture. In each experiment, the cells from three animals were pooled and analyzed three times. FFA were dissolved in absolute ethanol at a concentration of 500 mM and diluted to final concentrations of FFAs with the appropriate concentration of 1% (w/v) FFA-free BSA. Controls were incubated with equal concentrations of FFA-free BSA containing ethanol. […] Cells cultured on a coverslip were incubated with diluted Nile red or BODIPY 493/503. Some sections were double-labelled with TUNEL and BODIPY 493/503 and counterstained with Hoechst 33342. Fluorescence images were observed and analyzed using a Zeiss LSM 510 laser-scanning confocal microscope (Goettingen, Germany). Twenty cells from each experiment were observed and auantification of fluorescence intensity of the confocal images were obtained with the use of ImageJ software. Fluorescence intensity was expressed as AU.

caspase-3 and -7 = test: Western blot of apoptosis-related factors (caspase-3 and -7 activation); assay type: cell-based, rat; conditions: 100 μM DRB with 1 mM oleate; n=4
Method: as §1, with “The lysates were centrifuged at 14,000 rpm for 20 min at 4° C.” left out, “Then, 50 μg of proteins was loaded onto 15 SDS-PAGE. The separated proteins were transferred to nitrocellulose membranes (Amersham Pharmacia Biotech, Piscataway, N.J., USA) and probed with each antibody.” left out

[3] = system: rat articular chondrocytes; test: Total cytosol FFA content measurement; assay type: cell-based
Method: Cell were collected after treatment with trypsin (0.2% trypsin, 0.02% EDTA and 0.2% glucose in PBS) and pelleted by centrifugation (200×g for 5 min at 4° C.). Cell pellet was resuspended in ice-cold hypotonic lysis medium containing 20 mM Tris-HCl, pH 7.4 and 1 mM EDTA. Cells were homogenized with a Dounce homogenizer and then centrifuged (800×g for 5 min at 4° C.). The post-nuclear supernatant fraction was ultra-centrifuged ([…] for 5 min at 4° C.) using Beckman Table-top ultracentrifuge. LD fraction with the distinct white band on the preparation was removed with a pipetman and LD-free cytosol was used for FFA measurement. Cytosol FFA levels were measured using a commercial free fatty acid quantification kit from Abcam (ab65341).

[4] = system: rat articular chondrocytes; test: Phase contrast microscopy of oleate-induced cell death; assay type: cell-based; conditions: 25 ng/ml TNF-α, 1.5 mM oleate; n=4

`OC[C@H]1O[C@@H](n2cnc3cc(Cl)c(Cl)cc32)[C@H](O)[C@@H]1O` [DRB, 5,6-dichlorobenzimidazol riboside] was tested, and the “expression level of STAMP2” value (STAMP2; DRB) was “decreased”, the “level of FSP27 protein” value (FSP27; 100 μM DRB with 1 mM oleate) was “decreased the levels of FSP27 protein” and the “expression level of FSP27” value (FSP27; DRB) was “decreased”. For the same molecule, the “influence on lipotoxicity of oleate/palmitate combination (viability)” value ([1]; 0.4 mM oleate with 0.6 or 1.6 mM palmitate) was “reciprocal influences on lipotoxicity”, the LD accumulation ([2]; DRB in cells treated with 0.4 mM oleate and 0.6 mM palmitate) was “significantly reduced the LD accumulation” and the “LD size and LD accumulation” value ([2]; DRB pre-/co-treatment, 1 mM oleate) was “reversed oleate-induced LD enlargement; also recorded: reduces LD size and LD accumulation”. The “total LD volume” value ([2]; co-treatment with DRB versus 1 mM oleate, n=4) was “significantly decreased”, the “activation of caspase-7 and -3” value (caspase-3 and -7) was “activated caspase-7 and -3” and the “FFA level in the cytosol” value ([3]; 1.0 mM oleate with DRB versus without) was “significantly increased the FFA level in the cytosol”. For the same molecule, the “FFA level in the cytosol” value ([3]; cells treated with 0.6 mM palmitate and 0.4 mM oleate, n=4) was “significantly increased the FFA level in the cytosol”.
In the case of `CCCCCCCCCCCCCCCCCC(=O)O` [stearate, stearic acid], the “expression level of STAMP2” value (STAMP2; FFA at toxic concentrations) is reported as “reduced the expression level of STAMP2” and the cell viability ([1]; FFA alone at 0.5 to 2 mM) is reported as “significantly reduced cell viability”.
For TNF-α, the “effect on oleate-induced downregulation of STAMP2 protein” value (STAMP2; 25 ng/ml TNF-α, 1.5 mM oleate) was “completely reversed the 1.5 mM oleate-induced downregulation of the expression level of STAMP2 protein; also recorded: reversed 1.5 mM oleate (0)-induced downregulation of STAMP2 protein”, the “effect on oleate-induced cell death (viability)” value ([1]; 25 ng/ml TNF-α, 1.5 mM oleate) was “completely reversed 1.5 mM oleate-induced cell death; also recorded: prevented 1.5 mM oleate-induced cell death” and the “effect on oleate-induced reduction of LD size and total LD volume” value ([2]; TNF-α, 1.5 mM oleate) was “completely reversed the 1.5 mM oleate-induced reduction in total LD volume; also recorded: reversed 1.5 mM oleate-induced reduction of LD size and total LD volume”. The “effect on oleate-induced cell death (phase contrast microscopy)” value [4] was “prevented oleate-induced cell death”.
With zVAD-fmk the “effect on oleate-induced cell death (viability)” value ([1]; zVAD-fmk with 1.5 mM oleate) was “significantly prevented 1.5 mM oleate-induced cell death”.
